Results: US11332459B2 (TEIJIN PHARMA LIMITED, priority 2017, dated 2022)
Where a name gives a salt, the structure may show the parent alone.

Target: T1, human TRPC6 (Homo sapiens, UniProt Q9Y210)
T1 construct: expressed in transfected cells
T1 sequence (Q9Y210 1-931): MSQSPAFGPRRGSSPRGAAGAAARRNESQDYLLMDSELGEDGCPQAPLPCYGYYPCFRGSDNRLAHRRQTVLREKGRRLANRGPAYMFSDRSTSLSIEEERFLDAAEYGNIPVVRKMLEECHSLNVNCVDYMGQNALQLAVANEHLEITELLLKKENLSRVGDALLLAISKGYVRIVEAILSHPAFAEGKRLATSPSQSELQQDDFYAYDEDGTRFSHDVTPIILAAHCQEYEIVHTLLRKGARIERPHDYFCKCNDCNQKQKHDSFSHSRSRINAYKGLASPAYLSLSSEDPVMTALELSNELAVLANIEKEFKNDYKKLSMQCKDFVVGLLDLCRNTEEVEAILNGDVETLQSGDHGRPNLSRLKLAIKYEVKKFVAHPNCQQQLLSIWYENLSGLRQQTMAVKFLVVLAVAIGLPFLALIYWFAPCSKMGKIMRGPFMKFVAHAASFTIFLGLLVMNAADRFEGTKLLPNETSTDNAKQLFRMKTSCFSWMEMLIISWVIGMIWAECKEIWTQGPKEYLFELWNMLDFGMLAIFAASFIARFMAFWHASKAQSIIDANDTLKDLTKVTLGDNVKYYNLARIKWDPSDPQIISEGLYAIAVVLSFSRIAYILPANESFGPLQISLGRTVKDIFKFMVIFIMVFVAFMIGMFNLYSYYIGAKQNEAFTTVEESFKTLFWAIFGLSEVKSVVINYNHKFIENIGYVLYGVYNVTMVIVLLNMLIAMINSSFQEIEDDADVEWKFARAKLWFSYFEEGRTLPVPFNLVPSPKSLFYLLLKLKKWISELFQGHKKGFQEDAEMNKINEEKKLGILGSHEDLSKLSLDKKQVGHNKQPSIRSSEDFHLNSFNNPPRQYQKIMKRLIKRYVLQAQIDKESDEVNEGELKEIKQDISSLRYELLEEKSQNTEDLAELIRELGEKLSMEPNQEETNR
Test: TRPC6 calcium flux assay (FLIPR, OAG-stimulated calcium influx)
Type: cell-based
Settings: HEK293 cells stably transfected with human TRPC6, read-out: hTRPC6 Potency
Outline: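 HEK293 cells stably expressing human TRPC6, loaded with calcium dye 90–120 min at RT, then given compound for 25 min before OAG (50 uM final, 0.5% DMSO) in HEPES buffer pH 7.2 with 2 mM CaCl2. Background-subtracted FLIPR peak over 180 s normalized to OAG vs buffer; IC50 from dose plot.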

Row | SMILES | IC50 [nM]
1 | COc1cccc2c1nc(N1CCC(F)(F)[C@H](N)C1)n2Cc1ccc(C#N)cc1 [Example 410, (R)-4-((2-(3-amino-4,4-difluoropiperidin-1-yl)-4-methoxy-1H-benzo[d]imidazol-1-yl)methyl)benzonitrile] | 10.5
2 | N#Cc1ccc(Cn2c(N3CC[C@@H](F)[C@H](N)C3)nc3cnccc32)cc1 [Example 412, 4-((2-((3R,4R)-3-amino-4-fluoropiperidin-1-yl)-1H-imidazo[4,5-c]pyridin-1-yl)methyl)benzonitrile] | 322
3 | N#Cc1ccc(Cn2c(N3CC[C@@H](F)[C@H](N)C3)nc3ccncc32)cc1 [Example 413, 4-((2-((3R,4R)-3-amino-4-fluoropiperidin-1-yl)-3H-imidazo[4,5-c]pyridin-3-yl)methyl)benzonitrile] | 221
4 | N#Cc1ccc(Cn2c(N3CC[C@@H](F)[C@H](N)C3)nc3ncccc32)cc1 [Example 417, 4-((2-((3R,4R)-3-amino-4-fluoropiperidin-1-yl)-1H-imidazo[4,5-b]pyridin-1-yl)methyl)benzonitrile] | 12.7
5 | N#Cc1ccc(Cn2c(N3CCC[C@H](N)C3)nc3cccnc32)cc1 [Example 419, (S)-4-((2-(3-aminopiperidin-1-yl)-3H-imidazo[4,5-b]pyridin-3-yl)methyl)benzonitrile hydrochloride] | 128
6 | N#Cc1ccc2c(c1)CC[C@H]2n1c(N2CCC[C@H](N)C2)nc2ccccc21 [Example 423, (R)-1-(2-((S)-3-aminopiperidin-1-yl)-1H-benzo[d]imidazol-1-yl)-2,3-dihydro-1H-indene-5-carbonitrile] | 151
7 | COc1ccc(Cn2c(N3CC[C@@H](F)[C@H](N)C3)nc3ccccc32)nc1 [Example 425, (3R,4R)-4-fluoro-1-(1-((5-methoxypyridin-2-yl)methyl)-1H-benzo[d]imidazol-2-yl)piperidin-3-amine] | 113
8 | N#CC1CN(C(=O)Cn2c(N3CC[C@@H](F)[C@H](N)C3)nc3cc(F)c(F)cc32)C1 [Example 426, 1-(2-(2-((3R,4R)-3-amino-4-fluoropiperidin-1-yl)-5,6-difluoro-1H-benzo[d]imidazol-1-yl)acetyl)azetidine-3-carbonitrile] | 933
9 | CC(C)(C)OC1CN(C(=O)Cn2c(N3CC[C@@H](F)[C@H](N)C3)nc3cc(F)c(F)cc32)C1 [Example 427, 2-(2-((3R,4R)-3-amino-4-fluoropiperidin-1-yl)-5,6-difluoro-1H-benzo[d]imidazol-1-yl)-1-(3-(tert-butoxy)azetidin-1-yl)ethan-1-one] | > 1750
10 | N[C@@H]1CN(c2nc3cc(F)c(F)cc3n2CC(=O)N2CC(F)(F)C2)CC[C@H]1F [Example 428, 2-(2-((3R,4R)-3-amino-4-fluoropiperidin-1-yl)-5,6-difluoro-1H-benzo[d]imidazol-1-yl)-1-(3,3-difluoroazetidin-1-yl)ethanone] | 18.3
11 | CC(C)C1CN(C(=O)Cn2c(N3CC[C@@H](F)[C@H](N)C3)nc3cc(F)c(F)cc32)C1 [Example 429, 2-(2-((3R,4R)-3-amino-4-fluoropiperidin-1-yl)-5,6-difluoro-1H-benzo[d]imidazol-1-yl)-1-(3-isopropylazetidin-1-yl)ethanone] | > 3750
12 | N[C@@H]1CN(c2nc3cc(F)c(F)cc3n2CC(=O)N2CC3(C2)CC(F)(F)C3)CC[C@H]1F [Example 430, 2-(2-((3R,4R)-3-amino-4-fluoropiperidin-1-yl)-5,6-difluoro-1H-benzo[d]imidazol-1-yl)-1-(6,6-difluoro-2-azaspiro[3.3]heptan-2-yl)ethanone] | 880

Molecules with a lower IC50, results first:

Row | IC50 [nM] | SMILES
13 | 5.85 | N#Cc1ccc(Cn2c(N3CCC(F)(F)[C@H](N)C3)nc3c(Cl)cccc32)cc1 [Example 407, (R)-4-((2-(3-amino-4,4-difluoropiperidin-1-yl)-4-chloro-1H-benzo[d]imidazol-1-yl)methyl)benzonitrile]
14 | 2.68 | COc1cccc2c1nc(N1CC[C@@H](F)[C@H](N)C1)n2Cc1ccc(C#N)cc1 [Example 411, 4-((2-((3R,4R)-3-amino-4-fluoropiperidin-1-yl)-4-methoxy-1H-benzo[d]imidazol-1-yl)methyl)benzonitrile]
15 | 2.35 | N#Cc1ccc(Cn2c(N3CCC[C@H](N)C3)nc3cc(Cl)ccc32)cc1 [Example 422, (S)-4-((2-(3-aminopiperidin-1-yl)-5-chloro-1H-benzo[d]imidazol-1-yl)methyl)benzonitrile]
16 | 1.67 | COc1ccc2nc(N3CCC[C@H](N)C3)n(Cc3ccc(C#N)cc3)c2n1 [Example 404, (S)-4-((2-(3-aminopiperidin-1-yl)-5-methoxy-3H-imidazo[4,5-b]pyridin-3-yl)methyl)benzonitrile hydrochloride]
17 | 1.33 | COc1ccc2nc(N3CCC[C@H](N)C3)n(Cc3ccc(C#N)cc3)c2c1 [Example 402, (S)-4-((2-(3-aminopiperidin-1-yl)-6-methoxy-1H-benzo[d]imidazol-1-yl)methyl)benzonitrile hydrochloride]
18 | 1.04 | N#Cc1ccc(Cn2c(N3CC[C@H](F)[C@H](N)C3)nc3c(Cl)cccc32)cc1 [Example 409]
19 | 0.924 | N#Cc1ccc(Cn2c(N3CC[C@@H](F)[C@H](N)C3)nc3c(Cl)cccc32)cc1 [Example 408, 4-((2-((3R,4R)-3-amino-4-fluoropiperidin-1-yl)-4-chloro-1H-benzo[d]imidazol-1-yl)methyl)benzonitrile]
20 | 0.708 | N#Cc1ccc(Cn2c(N3CCC(F)(F)[C@H](N)C3)nc3ccc(Cl)cc32)cc1 [Example 405]
21 | 0.707 | N#Cc1ccc2c(c1)CC[C@@H]2n1c(N2CCC[C@H](N)C2)nc2ccccc21 [Example 424, (S)-1-(2-((S)-3-aminopiperidin-1-yl)-1H-benzo[d]imidazol-1-yl)-2,3-dihydro-1H-indene-5-carbonitrile]
22 | 0.6 | N#Cc1ccc(Cn2c(N3CC[C@@H](F)[C@H](N)C3)nc3ccc(Cl)cc32)cc1 [Example 420, 4-((2-((3R,4R)-3-amino-4-fluoropiperidin-1-yl)-6-chloro-1H-benzo[d]imidazol-1-yl)methyl)benzonitrile hydrochloride]
23 | 0.584 | N#Cc1ccc(Cn2c(N3CCC[C@H](N)C3)nc3c(Cl)cccc32)cc1 [Example 418, (S)-4-((2-(3-aminopiperidin-1-yl)-4-chloro-1H-benzo[d]imidazol-1-yl)methyl)benzonitrile 2,2,2-trifluoroacetate]
24 | 0.54 | N#Cc1ccc(Cn2c(N3CCC[C@H](N)C3)nc3ccc(Cl)cc32)cc1 [Example 421, (S)-4-((2-(3-aminopiperidin-1-yl)-6-chloro-1H-benzo[d]imidazol-1-yl)methyl)benzonitrile]
25 | 0.447 | COc1ccc2nc(N3CCC(F)(F)[C@H](N)C3)n(Cc3ccc(C#N)cc3)c2c1 [Example 406, (R)-4-((2-(3-amino-4,4-difluoropiperidin-1-yl)-6-methoxy-1H-benzo[d]imidazol-1-yl)methyl)benzonitrile]
26 | 0.395 | COc1ccc2nc(N3CC[C@H](F)[C@H](N)C3)n(Cc3ccc(C#N)cc3)c2c1 [Example 403, 4-((2-((3R,4S)-3-amino-4-fluoropiperidin-1-yl)-6-methoxy-1H-benzo[d]imidazol-1-yl)methyl)benzonitrile]
